According to patent US8618107B2 (Gilead Connecticut, Inc., priority 2010, dated 2013):

Target: Btk (Homo sapiens (Human), UniProt Q06187)
Assay: standard biochemical Btk Kinase Assay (Example 901)
Excerpt: Determination of IC50 values can be accomplished using conventional techniques known in the art. In general, an IC50 can be determined by measuring the activity of a given enzyme in the presence of a range of concentrations of the inhibitor under study. The experimentally obtained values of enzyme activity then are plotted against the inhibitor concentrations used. […] Analogously, other inhibitory concentrations can be defined through appropriate determinations of activity.

Chain of Btk (Q06187 whole entry): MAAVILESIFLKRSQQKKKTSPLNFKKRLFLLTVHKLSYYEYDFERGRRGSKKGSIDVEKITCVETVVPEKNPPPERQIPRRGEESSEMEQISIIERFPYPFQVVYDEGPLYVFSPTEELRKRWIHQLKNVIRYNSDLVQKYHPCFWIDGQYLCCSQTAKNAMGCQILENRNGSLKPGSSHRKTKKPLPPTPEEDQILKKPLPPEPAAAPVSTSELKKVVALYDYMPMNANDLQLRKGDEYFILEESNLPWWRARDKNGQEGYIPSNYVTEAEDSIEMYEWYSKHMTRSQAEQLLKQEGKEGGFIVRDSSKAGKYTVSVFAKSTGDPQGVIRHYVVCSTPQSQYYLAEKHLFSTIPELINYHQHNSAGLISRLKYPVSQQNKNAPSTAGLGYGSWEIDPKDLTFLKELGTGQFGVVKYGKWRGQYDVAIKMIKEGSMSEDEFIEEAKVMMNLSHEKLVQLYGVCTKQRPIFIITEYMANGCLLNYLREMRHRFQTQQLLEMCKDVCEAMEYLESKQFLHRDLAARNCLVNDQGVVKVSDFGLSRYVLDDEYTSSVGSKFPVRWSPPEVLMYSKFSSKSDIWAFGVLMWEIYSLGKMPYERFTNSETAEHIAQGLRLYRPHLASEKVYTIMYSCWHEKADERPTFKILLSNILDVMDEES

Row | SMILES | IC50 (Table 1) [nM] | IC50 (Table 2) [nM]
1 | Cc1c(-c2cc(Nc3cc4n(n3)CCN(C)C4)c(=O)[nH]n2)cccc1N1CCn2c(cc3c2CCCC3)C1=O [Example 101] | 2 | 
2 | Cc1c(-c2cc(Nc3cc4n(n3)CCN(C)C4)c(=O)[nH]n2)cccc1N1CCn2c(cc3ccccc32)C1=O [Example 102] | 22.9 | 
3 | Cc1c(-c2cc(Nc3cc4n(n3)CCN(C)C4)c(=O)n(C)n2)cccc1N1Cc2c(sc3ccccc23)C1=O [Example 103, 4-{2-Methyl-3-[1-methyl-5-({5-methyl-4H,5H,6H,7H-pyrazolo[1,5-a]pyrazin-2-yl}amino)-6-oxo-1,6-dihydropyridazin-3-yl]phenyl}-7-thia-4-azatricyclo[6.4.0.0^2,6]dodeca-1(8),2(6),9,11-tetraen-5-one] | 3200 | 
4 | Cn1cc(-c2cccc(N3CCn4c(cc5c4CCCC5)C3=O)c2CO)cc(Nc2cc(C3CC3)[nH]n2)c1=O [Example 106, 2-(3-(5-(5-cyclopropyl-1H-pyrazol-3-ylamino)-1-methyl-6-oxo-1,6-dihydropyridin-3-yl)-2-(hydroxymethyl)phenyl)-3,4,6,7,8,9-hexahydropyrazino[1,2-a]indol-1(2H)-one] | 1 | 
5 | Cn1cc(-c2cccc(N3CCn4c(cc5c4CCCC5)C3=O)c2CO)cc(Nc2ccc(N3CCOCC3)cn2)c1=O [Example 107, 2-(2-(hydroxymethyl)-3-(1-methyl-5-(5-morpholinopyridin-2-ylamino)-6-oxo-1,6-dihydropyridin-3-yl)phenyl)-3,4,6,7,8,9-hexahydropyrazino[1,2-a]indol-1(2H)-one] | 10.1 | 
6 | CC(=O)N1CCn2nc(Nc3cc(-c4cccc(N5CCn6c(cc7c6CCCC7)C5=O)c4CO)cn(C)c3=O)cc2C1 [Example 108, 2-(3-(5-(5-acetyl-4,5,6,7-tetrahydropyrazolo[1,5-a]pyrazin-2-ylamino)-1-methyl-6-oxo-1,6-dihydropyridin-3-yl)-2-(hydroxymethyl)phenyl)-3,4,6,7,8,9-hexahydropyrazino[1,2-a]indol-1(2H)-one] | 6.1 | 
7 | Cn1cc(-c2cccc(N3CCc4c(sc5c4CCCC5)C3=O)c2CO)nc(Nc2cnn(CCO)c2)c1=O [Example 116, 5-[3-(6-{[1-(2-Hydroxyethyl)-1H-pyrazol-4-yl]amino}-4-methyl-5-oxo-4,5-dihydropyrazin-2-yl)-2-(hydroxymethyl)phenyl)-8-thia-5-azatricyclo[7.4.0.02,7]trideca-1(9),2(7)-dien-6-one] | 6 | 
8 | Cn1nc(Nc2cc(-c3cccc(N4CCc5c(sc6c5CCCC6)C4=O)c3CO)nn(C)c2=O)cc1C(C)(C)O [Example 119, 5-[2-(hydroxymethyl)-3-(5-{[5-(2-hydroxypropan-2-yl)-1-methyl-1H-pyrazol-3-yl]amino}-1-methyl-6-oxo-1,6-dihydropyridazin-3-yl)phenyl]-8-thia-5-azatricyclo[7.4.0.02,7]trideca-1(9),2(7)-dien-6-one] | 7 | 
9 | Cn1cc(-c2cc(F)cc(N3CCn4c(cc5c4CCCC5)C3=O)c2CO)cc(Nc2cc3n(n2)CCOC3)c1=O [Example 149, 2-(3-(5-(6,7-Dihydro-4H-pyrazolo[5,1-c][1,4]oxazin-2-ylamino)-1-methyl-6-oxo-1,6-dihydropyridin-3-yl)-5-fluoro-2-(hydroxymethyl)phenyl)-3,4,6,7,8,9-hexahydropyrazino[1,2-a]indol-1(2H)-one] |  | 5
10 | Cn1cc(-c2cc(F)cc(N3CCn4c(cc5c4CCCC5)C3=O)c2CO)cc(Nc2ccc(C3CCN(C4COC4)CC3)cn2)c1=O [Example 265, 2-(5-Fluoro-2-(hydroxymethyl)-3-(1-methyl-5-(5-(1-(oxetan-3-yl)piperidin-4-yl)pyridin-2-ylamino)-6-oxo-1,6-dihydropyridin-3-yl)phenyl)-3,4,6,7,8,9-hexahydropyrazino[1,2-a]indol-1(2H)-one] |  | 2.8
11 | CN1CC(c2ccc(Nc3cc(-c4cc(F)cc(N5CCn6c(cc7c6CC(C)(C)C7)C5=O)c4CO)cn(C)c3=O)nc2)C1 [Example 271, 10-[5-Fluoro-2-(hydroxymethyl)-3-(1-methyl-5-{[5-(1-methylazetidin-3-yl)pyridine-2-yl]amino}-6-oxo-1,6-dihydropyridin-3-yl)phenyl]-4,4-dimethyl-1,10-diazatricyclo[6.4.0.0^2,6]dodeca-2(6),7-dien-9-one] |  | 4.7
12 | Cn1cc(-c2cc(F)cc(N3CCn4c(cc5c4CC(C)(C)C5)C3=O)c2CO)cc(Nc2ccc(CN3CCOCC3)cn2)c1=O [Example 274, 10-[5-Fluoro-2-(hydroxymethyl)-3-(1-methyl-5-{[5-(morpholin-4-ylmethyl)pyridine-2-yl]amino}-6-oxo-1,6-dihydropyridin-3-yl)phenyl]-4,4-dimethyl-1,10-diazatricyclo[6.4.0.0^2,6]dodeca-2(6),7-dien-9-one] |  | 2.34
13 | Cc1cc(Nc2cc(-c3cc(F)cc(N4CCn5c(cc6c5CC(C)(C)C6)C4=O)c3CO)cn(C)c2=O)n[nH]1 [Example 276, 10-[5-Fluoro-2-(hydroxymethyl)-3-{1-methyl-5-[(5-methyl-1H-pyrazol-3-yl)amino]-6-oxo-1,6-dihydropyridin-3-yl}phenyl]-4,4-dimethyl-1,10-diazatricyclo[6.4.0.0^2,6]dodeca-2(6),7-dien-9-one] |  | 2.2
14 | CN1CCC(c2ccc(Nc3nc(-c4cc(F)cc(N5CCc6c(sc7c6CC(C)(C)C7)C5=O)c4CO)cn(C)c3=O)cc2)CC1 [Example 278, 10-[5-Fluoro-2-(hydroxymethyl)-3-(4-methyl-6-{[4-(1-methylpiperidin-4-yl)phenyl]amino}-5-oxo-4,5-dihydropyrazin-2-yl)phenyl]-4,4-dimethyl-7-thia-10-azatricyclo[6.4.0.0^2,6]dodeca-1(8),2(6)-dien-9-one] |  | 2.6
15 | CN1CCC(c2ccc(Nc3nc(-c4cc(F)cc(N5CCc6c(sc7c6CCCC7)C5=O)c4CO)cn(C)c3=O)cc2)CC1 [Example 281, 5-[5-Fluoro-2-(hydroxymethyl)-3-(4-methyl-6-{[4-(1-methylpiperidin-4-yl)phenyl]amino}-5-oxo-4,5-dihydropyrazin-2-yl)phenyl]-8-thia-5-azatricyclo[7.4.0.0^2,7]trideca-1(9),2(7)-dien-6-one] |  | 5.2
16 | CN1CCC(c2ccc(Nc3nc(-c4cc(F)cc(N5CCn6c(cc7c6CCCC7)C5=O)c4CO)cn(C)c3=O)cc2)CC1 [Example 282, 2-(5-Fluoro-2-(hydroxymethyl)-3-(4-methyl-6-(4-(1-methylpiperidin-4-yl)phenylamino)-5-oxo-4,5-dihydropyrazin-2-yl)phenyl)-3,4,6,7,8,9-hexahydropyrazino[1,2-a]indol-1(2H)-one] |  | 4
17 | CN1CCc2cc(Nc3nc(-c4cc(F)cc(N5CCn6c(cc7c6CCCC7)C5=O)c4CO)cn(C)c3=O)ccc2C1 [Example 283, 2-(5-Fluoro-2-(hydroxymethyl)-3-(4-methyl-6-(2-methyl-1,2,3,4-tetrahydroisoquinolin-6-ylamino)-5-oxo-4,5-dihydropyrazin-2-yl)phenyl)-3,4,6,7,8,9-hexahydropyrazino[1,2-a]indol-1(2H)-one] |  | 8.1
18 | CN1CCC[C@@H]1c1ccc(Nc2cc(-c3cc(F)cc(N4CCn5c(cc6c5CC(C)(C)C6)C4=O)c3CO)cn(C)c2=O)nc1 [Example 291, 10-[5-Fluoro-2-(hydroxymethyl)-3-[1-methyl-5-({5-[(2R)-1-methylpyrrolidin-2-yl]pyridine-2-yl}amino)-6-oxo-1,6-dihydropyridin-3-yl]phenyl]-4,4-dimethyl-1,10-diazatricyclo[6.4.0.0^2,6]dodeca-2(6),7-dien-9-one] |  | 1.74
19 | Cn1cc(-c2cc(F)cc(N3CCn4c(cc5c4CC(C)(C)C5)C3=O)c2CO)cc(Nc2ccc3c(n2)CCN(C2COC2)C3)c1=O [Example 292, 10-[5-Fluoro-2-(hydroxymethyl)-3-(1-methyl-5-{[6-(oxetan-3-yl)-5,6,7,8-tetrahydro-1,6-naphthyridin-2-yl]amino}-6-oxo-1,6-dihydropyridin-3-yl)phenyl]-4,4-dimethyl-1,10-diazatricyclo[6.4.0.0^2,6]dodeca-2(6),7-dien-9-one] |  | 11.6
20 | CN1CC(Oc2ccc(Nc3cc(-c4cc(F)cc(N5CCn6c(cc7c6CCCC7)C5=O)c4CO)cn(C)c3=O)nc2)C1 [Example 293, 2-(5-Fluoro-2-(hydroxymethyl)-3-(1-methyl-5-(5-(1-methylazetidin-3-yloxy)pyridin-2-ylamino)-6-oxo-1,6-dihydropyridin-3-yl)phenyl)-3,4,6,7,8,9-hexahydropyrazino[1,2-a]indol-1(2H)-one] |  | 9.8
21 | CN1CCC(c2ccc(Nc3nc(-c4cc(F)cc(N5CCn6c(cc7c6CC(C)(C)C7)C5=O)c4CO)cn(C)c3=O)cc2)CC1 [Example 294, 10-[5-Fluoro-2-(hydroxymethyl)-3-(4-methyl-6-{[4-(1-methylpiperidin-4-yl)phenyl]amino}-5-oxo-4,5-dihydropyrazin-2-yl)phenyl]-4,4-dimethyl-1,10-diazatricyclo[6.4.0.0^2,6]dodeca-2(6),7-dien-9-one] |  | 16
22 | CN(C)CCOc1ccc(Nc2cc(-c3cc(F)cc(N4CCn5c(cc6c5CCCC6)C4=O)c3CO)cn(C)c2=O)nc1 [Example 297, 2-(3-(5-(5-(2-(Dimethylamino)ethoxy)pyridin-2-ylamino)-1-methyl-6-oxo-1,6-dihydropyridin-3-yl)-5-fluoro-2-(hydroxymethyl)phenyl)-3,4,6,7,8,9-hexahydropyrazino[1,2-a]indol-1(2H)-one] |  | 4.2
23 | CN1CC(c2ccc(Nc3nc(-c4cc(F)cc(N5CCc6c(sc7c6CC(C)(C)C7)C5=O)c4CO)cn(C)c3=O)cc2)C1 [Example 298, 10-[5-fluoro-2-(hydroxymethyl)-3-(4-methyl-6-{[4-(1-methylazetidin-3-yl)phenyl]amino}-5-oxopyrazin-2-yl)phenyl]-4,4-dimethyl-7-thia-10-azatricyclo[6.4.0.0^2,6]dodeca-1(8),2(6)-dien-9-one] |  | 5.3
24 | Cn1cc(-c2cccc(N3CCn4c(cc5c4CCCC5)C3=O)c2CO)cc(Nc2ccc(N3CCNCC3)cn2)c1=O [Example 301, 2-(2-(Hydroxymethyl)-3-(1-methyl-6-oxo-5-(5-(piperazin-1-yl)pyridin-2-ylamino)-1,6-dihydropyridin-3-yl)phenyl)-3,4,6,7,8,9-hexahydropyrazino[1,2-a]indol-1(2H)-one] |  | 6.1
